Marks after values point to notes of the source that are not given here.

A short description of data set [1]: Plasma pharmacokinetics in mice after single intravenous cassette doses. The note with it: for concentration at 0.083 h / concentration at 0.25 h / concentration at 0.5 h / concentration at 1 h / concentration at 3 h / concentration at 6 h / concentration at 8 h / AUC(0-inf) / Cmax / half-life: male, Hsd:ICR (CD-1), mouse, plasma, 3 mg/kg; for concentration at 0.083 h / concentration at 0.25 h / concentration at 0.5 h / concentration at 1 h / concentration at 3 h / concentration at 6 h / concentration at 8 h: intravenous, Mean Conc. in plasma; for concentration at 0.083 h / concentration at 0.25 h / concentration at 0.5 h / concentration at 1 h / concentration at 3 h / concentration at 6 h / concentration at 8 h / Mean Conc. in plasma / Mean concentration in plasma: mice; for AUC(0-inf) / Cmax / half-life: iv; for AUC(0-inf): AUC0-∞; for Cmax: Cmax (highest measured value); for half-life: t1/2, λz; for Mean concentration in plasma: single 18 mg/kg intravenous cassette dose (Cassette #1).
Description: Male mice are given single intravenous cassette doses of CDK inhibitor compounds.
A single intravenous cassette dose (18 or 15 mg/kg free base) is administered. For each compound, this is equivalent to a dose of approx. 3 mg/kg free base. […] The dose is administered at a volume of 10 ml/kg (total volume of approximately 0.25 ml/animal).
Male mice (Hsd:ICR (CD-1® SD®), Harlan), each weighing approximately 20-30 g at the start of the study. […] Water is available ad libitum throughout the study.
A single cassette dose of 5-6 compounds is administered by bolus injection into the tail vein over a 10-15-second period. […] Whole blood (approximately 0.6 ml/sample) is obtained by cardiac puncture and transferred to 3 ml glass tubes containing 45 U sodium heparin.
Sample Processing: Plasma: Whole blood is centrifuged at approximately 3,200 rpm for 10 min at approximately 5° C. and the plasma (approx. 0.3 ml/sample) is transferred to chilled plastic vials and stored at approx. −70° C. until bioanalysis.
Sample Analysis: Concentrations of each test article in plasma are quantitated by a non-validated method based on LC/MS using the following protocol.
Samples are removed from the freezer, allowed to thaw at room temperature, and vortexed to insure complete homogenization prior to sample manipulation. Samples are then prepared according to the following scheme: • 1. transfer 48 μL of plasma (blank mouse sample) into a 12×75 mm test tube. • 2. add 12 μL of working standard to the blank plasma for standard curve preparation. • 3. […] Inject 25 μL on LC/MS. Chromatographic Conditions:
Data Analysis: Concentrations of Compounds in plasma of individual animals are determined by bioanalytics. […] Statistical analyses are limited to simple expressions of variation (mean and standard deviation). The plasma AUC (area-under-curve) is determined by the linear trapezoidal rule. […] All PK parameters are determined by noncompartmental methods using WinNonlin version 3.0 (Pharsight Corp).
The following information is based on a graph of the semi-log of the plasma concentration in ng/ml versus collection time in hours. • “Cmax” represents the maximum plasma concentration. • “t1/2” represents the half-life of the compound. • “AUC0-∞” represents the calculated area under the curve. • “AUC % Extrap(obs.)” represents the extrapolated area under the curve. • “Cls” is the clearance rate.

The nature of data set [2]: Red blood cell binding (RBC to plasma ratio), human whole blood. The class given is in vitro ADME. The conditions noted are these: 30 minutes at 37° C., nominal 500 ng/ml. The procedure:
(§1) Compounds, including one positive control, are assessed for red blood cell (RBC) uptake, using a modified procedure based on the protocol reported in Sun, J. X. S., et al. High-performance liquid chromatographic analysis, plasma protein binding and red blood cell partitioning of phenprobamate. Biopharmaceutics and Drug Disposition, 8 (1987) 341-351.
(§2) Briefly, RBC uptake is evaluated by comparison of the levels in spiked plasma (n=3) and plasma isolated from spiked whole blood (n=3). Compounds are incubated with human and mouse whole blood, respectively, for 30 minutes at 37° C. using a nominal concentration of 500 ng/ml. Following centrifugation, the plasma is removed and submitted for analysis. Each compound is also spiked into blank plasma at a nominal concentration of 500 ng/ml, and submitted for analysis. Levels in the two plasma samples (Cp′ and Cp in the equation below) and the blood hematocrit are used to determine the red blood cell to plasma ratio (Crbc/Cp). [formula] In equation 1, Cp′ is the level of drug in the spiked “blank” plasma, Cp is the level of drug in the plasma of spiked whole blood, and H is the hematocrit. The hematocrit values are determined as 0.4 for human whole blood and 0.41 for mouse whole blood. The samples are analyzed with ESI LC/MS, using positive ion detection with an internal standard.
(§3) The red blood cell to plasma ratio is determined for each compound using equation 1. Tables 6 and 7 summarize the respective mean Crbc/Cp values and standard deviations for mouse and human whole blood, respectively, in descending order based on the red blood cell to plasma ratio, where “*” denotes Positive Control, and “ND” denotes Not Determined. MDL 108552 is included as a positive control for red blood cell uptake.

Data set [3] can be described thus: Red blood cell binding (RBC to plasma ratio), mouse whole blood. In kind it is in vitro ADME. The note with it: 30 minutes at 37° C., nominal 500 ng/ml, hematocrit 0.41. The procedure:
as §1, §2, §3

[4] abbreviates: Cassette #2, single 18 mg/kg iv cassette dose (3 mg/kg/compound), 8 h.
The mark [5] stands for this setting: mouse plasma, iv Cassette #2, 3 mg/kg/compound (18 mg/kg total dose).
[6] abbreviates: mouse plasma, iv Cassette #3, 3 mg/kg/compound (15 mg/kg total dose).
Setting [7] is: mouse plasma, iv Cassette #4, 3 mg/kg/compound (15 mg/kg total dose).
[8] abbreviates: Cassette #2, single 18 mg/kg iv cassette dose (3 mg/kg/compound), 24 h.
Setting [9] is: 24 h, BLQ = below assay quantification limit (approx. 1 ng/ml).

For orientation: AUC(0-inf) means the area under the concentration-time curve extrapolated to infinity. High values mean high exposure, low ones low exposure. Usually Cmax stands for the maximum level reached in the sampled fluid or tissue. The half-life is the time needed for the level to fall by half in the phase considered. Low readings indicate fast loss, high ones slow loss. Take `NC1CCC(Nc2nc(NCCCc3ccccc3)c3ncn(C4CCCC4)c3n2)CC1` (centres unmarked) [MDL 107167, reference compound]: the concentration at 0.083 h in data set [1] (Cassette #2, single 18 mg/kg iv cassette dose (3 mg/kg/compound), 0.083 h) was determined as 472 ng/mL; in data set [1] (Cassette #3, single 15 mg/kg iv cassette dose (3 mg/kg/compound), 0.083 h), 520 ± 69.3 ng/mL; in data set [1] (Cassette #4, single 15 mg/kg iv cassette dose (3 mg/kg/compound), 0.083 h), 567 ± 43.5 ng/mL. Besides, the concentration at 0.25 h came to 317 ng/mL in data set [1] (Cassette #2, single 18 mg/kg iv cassette dose (3 mg/kg/compound), 0.25 h); 324 ± 32.3 ng/mL in data set [1] (Cassette #3, single 15 mg/kg iv cassette dose (3 mg/kg/compound), 0.25 h); 491 ± 32.3 ng/mL in data set [1] (Cassette #4, single 15 mg/kg iv cassette dose (3 mg/kg/compound), 0.25 h). Besides, the concentration at 0.5 h in data set [1] (Cassette #2, single 18 mg/kg iv cassette dose (3 mg/kg/compound), 0.5 h) amounted to 266 ng/mL; in data set [1] (Cassette #3, single 15 mg/kg iv cassette dose (3 mg/kg/compound), 0.5 h), 209 ± 24.1 ng/mL; in data set [1] (Cassette #4, single 15 mg/kg iv cassette dose (3 mg/kg/compound), 0.5 h), 325 ± 13.6 ng/mL. Further, the concentration at 1 h in data set [1] (Cassette #2, single 18 mg/kg iv cassette dose (3 mg/kg/compound), 1 h) was found to be 133 ng/mL; in data set [1] (Cassette #3, single 15 mg/kg iv cassette dose (3 mg/kg/compound), 1 h) it was 108 ± 29.3 ng/mL; in data set [1] (Cassette #4, single 15 mg/kg iv cassette dose (3 mg/kg/compound), 1 h), 145 ± 9.5 ng/mL. Further, the concentration at 3 h in data set [1] (Cassette #2, single 18 mg/kg iv cassette dose (3 mg/kg/compound), 3 h) turned out to be 16.1 ± 1.4 ng/mL; in data set [1] (Cassette #3, single 15 mg/kg iv cassette dose (3 mg/kg/compound), 3 h), 23.5 ± 6.4 ng/mL; in data set [1] (Cassette #4, single 15 mg/kg iv cassette dose (3 mg/kg/compound), 3 h) it was 35.3 ± 8.3 ng/mL. Moreover, the concentration at 6 h in data set [1] (Cassette #2, single 18 mg/kg iv cassette dose (3 mg/kg/compound), 6 h) came to 2.8 ± 0.4 ng/mL; in data set [1] (Cassette #3, single 15 mg/kg iv cassette dose (3 mg/kg/compound), 6 h), 5 ± 0.5 ng/mL; in data set [1] (Cassette #4, single 15 mg/kg iv cassette dose (3 mg/kg/compound), 6 h), 10.1 ± 3 ng/mL. Also, the concentration at 8 h in data set [1] (setting [4]) was found to be 1.6 ± 0.2 ng/mL; in data set [1] (Cassette #3, single 15 mg/kg iv cassette dose (3 mg/kg/compound), 8 h), 2.4 ± 1.7 ng/mL; in data set [1] (Cassette #4, single 15 mg/kg iv cassette dose (3 mg/kg/compound), 8 h), 3.7 ± 0.7 ng/mL. In addition, the AUC(0-inf) was 467 ng·h/mL in data set [1] (setting [5]), 452 ng·h/mL in data set [1] (setting [6]) and 627 ng·h/mL in data set [1] (setting [7]). The figures for the Cmax in data set [1] (setting [5]), in data set [1] (setting [6]) and in data set [1] (setting [7]) were 472 ng/mL, 520 ng/mL and 567 ng/mL, respectively. For the same compound, the half-life in data set [1] (setting [5]), in data set [1] (setting [6]) and in data set [1] (setting [7]) was 1.5 h throughout. For the same compound, the “Mean Conc. in plasma” value is “BLQ” in data set [1] (setting [8]); “BLQ” in data set [1] (Cassette #3, single 15 mg/kg iv cassette dose (3 mg/kg/compound), 24 h); “BLQ” in data set [1] (Cassette #4, single 15 mg/kg iv cassette dose (3 mg/kg/compound), 24 h). Also, the “Mean concentration in plasma” value in data set [1] (setting [9]) was “BLQ”. The “AUC0-∞” value in data set [1] (mouse plasma, iv Cassette #1, 3 mg/kg/compound (18 mg/kg total dose)) turned out to be 532 ng·h/mL.

For the compound `Cl.Cl.N[C@H]1CC[C@H](Nc2nc(NC3CCN(C(=O)c4cccc(C(F)(F)F)c4F)CC3)c3ncn(C4CCCC4)c3n2)CC1` [Compound 12, trans-1-{4-[2-(4-Amino-cyclohexylamino)-9-cyclopentyl-9H-purin-6-ylamino]-piperidin-1-yl}-1-(2-fluoro-3-trifluoromethyl-phenyl)-methanone dihydrochloride], in data set [1] (setting [9]), the “Mean concentration in plasma” value is on record as “BLQ”. In addition, the “Mean Red Blood Cell to Plasma Ratio” value in data set [2] is reported as 3.6; in data set [3], 1.9.

Consider `COC(=O)c1ccc(OC(=O)N2CCC(Nc3nc(N[C@H]4CC[C@H](N)CC4)nc4c3ncn4C3CCCC3)CC2)cc1.Cl.Cl` [Compound 83, trans-4-[2-(4-Amino-cyclohexylamino)-9-cyclopentyl-9H-purin-6-ylamino]-piperidine-1-carboxylic acid 4-methoxycarbonyl-phenyl ester dihydrochloride], for which the “Mean concentration in plasma” value in data set [1] (0.083 h) was 1515.7 ± 611.8 ng/mL; in data set [1] (0.25 h) it was 217.9 ± 92.8 ng/mL; in data set [1] (0.5 h), 61.3 ± 32.9 ng/mL; in data set [1] (1 h), 14.1^a ng/ml; in data set [1] (3 h) it was 4.1^a ng/ml; in data set [1] (6 h), 1.6^a ng/ml. For the same compound, the “Mean concentration in plasma” value is on record as 6.3^a ng/ml in data set [1] (8 h) and “BLQ” in data set [1] (setting [9]). Besides, in data set [2], the “Mean Red Blood Cell to Plasma Ratio” value came out at 4.1.

On to `CCOC(=O)c1ccc(NC(=O)N2CCC(Nc3nc(N[C@H]4CC[C@H](N)CC4)nc4c3ncn4C3CCCC3)CC2)cc1.Cl.Cl` [Compound 154, trans-4-[(1-{4-[2-(4-Amino-cyclohexylamino)-9-cyclopentyl-9H-purin-6-ylamino]-piperidine-1-yl}-methanoyl)-amino]-benzoic acid ethyl ester dihydrochloride], for which the “Mean Conc. in plasma” value in data set [1] (setting [4]) and in data set [1] (setting [8]) was “BLQ^a” in each case. Moreover, in data set [2], the “Mean Red Blood Cell to Plasma Ratio” value turned out to be 4.1.

For the origin of these results see patent US6861524B2, “Acyl and sulfonyl derivatives of 6,9-disubstituted 2-(trans-1,4-diaminocyclohexyl)-purines and their use as antiproliferative agents” (Aventis Pharmaceuticals Inc., priority 2000, dated 2005).
